Source: the RepoRT retention time repository

Test: RP, Waters ACQUITY UPLC BEH C8, 100 × 2.1 mm, 1.7 µm, 55 °C, 0.6 mL/min, estimated dead time 0.37 min; A: 50% water + 25% acetonitrile + 25% isopropanol + 0.05% acetic acid + 20 µM phosphoric acid + 5 mM ammonium acetate; B: 50% acetonitrile + 50% isopropanol + 0.05% acetic acid + 5 mM ammonium acetate; gradient (min/%B) 0/1 0.1/1 2/30 11.5/90 12/99.9 12.5/99.9 12.55/65 12.65/30 12.75/1 12.95/1 13.25/1
Conditions: stereoisomer not certain

SMILES	LC retention time
CCCCCCCCCCCCCCCCCC(=O)OCC(O)COP(=O)(O)OCCN (stereo not drawn) [LPE(18:0/0:0)]	2.48 min
CCCCCCCCCCCCCC=CC(O)C(COC1OC(CO)C(OC2OC(CO)C(O)C(O)C2O)C(O)C1O)NC(=O)CCCCCCCCCCCCCCCCCCCCC (stereo not drawn) [LacCer(d18:1/22:0)]	7.86 min
CCCCCCCCCCCCCCC(=O)OCC(O)COP(=O)([O-])OCC[N+](C)(C)C (stereo not drawn) [LPC(15:0/0:0)]	1.61 min
CCCCCCCCCCCCCCCCCC(=O)OCC(CO)OC(=O)CCCCCCCCCCCCCCC (stereo not drawn) [DG(18:0/16:0)]	8.19 min
CCCCCCCCCCCCCCCCCCCCCC(=O)OCC(O)COP(=O)([O-])OCC[N+](C)(C)C (stereo not drawn) [LPC(22:0/0:0)]	3.73 min
CCCCCCCCCCCCCCCCOCC(O)COP(=O)([O-])OCC[N+](C)(C)C (stereo not drawn) [LPC(O-16:0/0:0)]	2.09 min
CCCCCCCCCCCCCC=CC(O)C(CO)NC(=O)CCCCCCCCCCCCCCCCCCCCC (stereo not drawn) [Cer(d18:1/22:0)]	8.46 min
Cc1cc(O)cc2c1OC(C)(CCCC(C)CCCC(C)CCCC(C)C)CC2 (stereo not drawn) [Delta-Tocopherol]	5.02 min
CC1=CCCC(C)(C)C1/C=C/C(C)=C/C=C/C(C)=C/C=C/C=C(C)/C=C/C=C(C)/C=C/C1=C(C)CCCC1(C)C (stereo not drawn) [Alpha-carotene]	8.56 min
CCCCCCCCCCCC=CC(O)C(COP(=O)([O-])OCC[N+](C)(C)C)NC(=O)CCCCCCCCCCCCCCCCCCCCC (stereo not drawn) [SM(d16:1/22:0)]	7.23 min
CCCCCCCCCCCCCCCCCCOCC(COP(=O)([O-])OCC[N+](C)(C)C)OC(=O)CCCCCCCCCCCCCCC (stereo not drawn) [PC(O-18:0/16:0)]	7.47 min
CC(C=CC=C(C)C=CC1=C(C)CC(O)CC1(C)C)=CC=CC=C(C)C=CC=C(C)C=CC1=C(C)CC(O)CC1(C)C (stereo not drawn) [Zeaxanthin]	3.6 min
CCCCCCCCCCCC=CC(O)C(CO)NC(=O)CCCCCCCCCCCCCCCCCCCCCCC (stereo not drawn) [Cer(d16:1/24:0)]	8.54 min
